# Target: T1, TLR7 (Homo sapiens, UniProt Q9NYK1)
# T1 construct: host or cells: HEK-Blue cells (human HEK) co-expressing TLR7 and an NF-kB/AP1-inducible SEAP reporter
# T1 sequence (Q9NYK1 27-1049): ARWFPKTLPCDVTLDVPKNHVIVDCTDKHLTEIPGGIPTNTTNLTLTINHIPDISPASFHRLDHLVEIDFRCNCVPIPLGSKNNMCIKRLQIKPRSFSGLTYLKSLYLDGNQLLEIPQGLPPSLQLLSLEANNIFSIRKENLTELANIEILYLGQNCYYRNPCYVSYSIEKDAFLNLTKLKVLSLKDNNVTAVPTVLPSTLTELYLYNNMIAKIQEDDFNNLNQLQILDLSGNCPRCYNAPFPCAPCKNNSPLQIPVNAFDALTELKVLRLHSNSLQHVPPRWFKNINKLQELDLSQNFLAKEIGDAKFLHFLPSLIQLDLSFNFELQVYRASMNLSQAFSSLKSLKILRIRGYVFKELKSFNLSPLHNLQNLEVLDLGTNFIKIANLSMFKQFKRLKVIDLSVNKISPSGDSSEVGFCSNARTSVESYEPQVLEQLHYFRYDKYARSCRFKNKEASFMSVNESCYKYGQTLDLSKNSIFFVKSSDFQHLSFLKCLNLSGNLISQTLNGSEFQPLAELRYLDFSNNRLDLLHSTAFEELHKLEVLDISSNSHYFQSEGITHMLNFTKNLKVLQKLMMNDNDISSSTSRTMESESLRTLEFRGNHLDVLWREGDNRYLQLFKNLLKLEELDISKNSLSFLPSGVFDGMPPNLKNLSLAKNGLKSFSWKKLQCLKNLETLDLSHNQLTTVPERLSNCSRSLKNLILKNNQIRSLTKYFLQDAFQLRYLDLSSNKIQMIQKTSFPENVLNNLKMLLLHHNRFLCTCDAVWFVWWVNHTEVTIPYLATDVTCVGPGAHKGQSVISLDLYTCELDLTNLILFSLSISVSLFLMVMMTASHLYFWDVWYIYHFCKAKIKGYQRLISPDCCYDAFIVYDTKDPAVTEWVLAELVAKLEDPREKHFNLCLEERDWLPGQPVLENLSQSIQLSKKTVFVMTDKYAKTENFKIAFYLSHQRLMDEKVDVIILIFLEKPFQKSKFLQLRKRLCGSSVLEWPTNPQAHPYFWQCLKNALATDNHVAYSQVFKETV
# Assay: In vitro human TLR7 binding reporter assay (HEK-Blue, NF-kB/AP1-inducible SEAP)
# Format: cell-based
# Settings: activity range symbols
# How it was run: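 Reporter cells are plated at 15,000 per well and rested 24 h. Next day, test compounds or DMSO are dispensed, followed by 18 h incubation at 37 °C, 5% CO2.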
row,SMILES,EC50 [µM]
1,"CCN(Cc1nc2c(N)nc3cc(-c4cc[nH]n4)ccc3c2[nH]1)C(=O)c1ccc(OC)cc1 [Compound 441, N-{[4-amino-7-(1H-pyrazol-3-yl)-1H-imidazo[4,5-c]quinolin-2-yl]methyl}-N-ethyl-4-methoxybenzamide]",> 100
2,"CCN(Cc1nc2c(N)nc3cc(-c4cc[nH]n4)ccc3c2[nH]1)C(=O)c1cnccn1 [Compound 442, N-{[4-amino-7-(1H-pyrazol-3-yl)-1H-imidazo[4,5-c]quinolin-2-yl]methyl}-N-ethylpyrazine-2-carboxamide]",> 100
3,"CCN(Cc1nc2c(N)nc3cc(-c4cc[nH]n4)ccc3c2[nH]1)C(=O)Cc1ccccc1 [Compound 443, N-{[4-amino-7-(1H-pyrazol-3-yl)-1H-imidazo[4,5-c]quinolin-2-yl]methyl}-N-ethyl-2-phenylacetamide]",> 100
4,"CCN(Cc1nc2c(N)nc3cc(-c4cc[nH]n4)ccc3c2[nH]1)C(=O)CCCc1ccccc1 [Compound 444, N-{[4-amino-7-(1H-pyrazol-3-yl)-1H-imidazo[4,5-c]quinolin-2-yl]methyl}-N-ethyl-4-phenylbutanamide]",> 100
5,"CCN(Cc1nc2c(N)nc3cc(-c4cc[nH]n4)ccc3c2[nH]1)C(=O)CCC(C)C [Compound 445, N-{[4-amino-7-(1H-pyrazol-3-yl)-1H-imidazo[4,5-c]quinolin-2-yl]methyl}-N-ethyl-4-methylpentanamide]",> 100
6,"CCN(Cc1nc2c(N)nc3cc(-c4cc[nH]n4)ccc3c2[nH]1)C(=O)c1cccn1C [Compound 446, N-{[4-amino-7-(1H-pyrazol-3-yl)-1H-imidazo[4,5-c]quinolin-2-yl]methyl}-N-ethyl-1-methyl-1H-pyrrole-2-carboxamide]",> 100
7,"CCN(Cc1nc2c(N)nc3cc(-c4cc[nH]n4)ccc3c2[nH]1)C(=O)CCc1ccccc1 [Compound 447, N-{[4-amino-7-(1H-pyrazol-3-yl)-1H-imidazo[4,5-c]quinolin-2-yl]methyl}-N-ethyl-3-phenylpropanamide]",> 100
8,"CCN(Cc1nc2c(N)nc3cc(-c4cc[nH]n4)ccc3c2[nH]1)C(=O)c1ccccc1Cl [Compound 449, N-{[4-amino-7-(1H-pyrazol-3-yl)-1H-imidazo[4,5-c]quinolin-2-yl]methyl}-2-chloro-N-ethylbenzamide]",> 100
9,"CCN(Cc1nc2c(N)nc3cc(-c4cc[nH]n4)ccc3c2[nH]1)C(=O)c1ccncc1 [Compound 450, N-{[4-amino-7-(1H-pyrazol-3-yl)-1H-imidazo[4,5-c]quinolin-2-yl]methyl}-N-ethylpyridine-4-carboxamide]",> 100
10,"CCN(Cc1nc2c(N)nc3cc(-c4cc[nH]n4)ccc3c2[nH]1)C(=O)c1cn(C)c2ccccc12 [Compound 451, N-{[4-amino-7-(1H-pyrazol-3-yl)-1H-imidazo[4,5-c]quinolin-2-yl]methyl}-N-ethyl-1-methyl-1H-indole-3-carboxamide]",> 100
11,"CCN(Cc1nc2c(N)nc3cc(-c4cc[nH]n4)ccc3c2[nH]1)C(=O)c1ccc(Cl)cc1 [Compound 452, N-{[4-amino-7-(1H-pyrazol-3-yl)-1H-imidazo[4,5-c]quinolin-2-yl]methyl}-4-chloro-N-ethylbenzamide]",> 100

# Results, then the compound that gave them:
row,EC50 [µM],SMILES
1,> 100,COc1ccc(Cn2c(CN3C(=O)OCC3c3ccccc3)nc3c(N)nc4cc(-c5cc[nH]n5)ccc4c32)cc1 (stereo not drawn) [Compound 409]
2,> 100,COc1ccc(Cn2c(Cn3cnccc3=O)nc3c(N)nc4cc(-c5cc[nH]n5)ccc4c32)cc1 [Compound 414]
3,> 100,CCN(Cc1nc2c(N)nc3cc(-c4cc[nH]n4)ccc3c2[nH]1)C(=O)C1COC1 [Compound 417]
4,> 100,"CCN(Cc1nc2c(N)nc3cc(-c4ccsc4)ccc3c2[nH]1)C(C)=O [Compound 419, N-((4-Amino-7-(thiophen-3-yl)-1H-imidazo[4,5-c]quinolin-2-yl)methyl)-N-ethylacetamide]"
5,> 100,CCN(Cc1nc2c(N)nc3cc(-c4cc[nH]n4)ccc3c2n1C)C(=O)OC(C)(C)C [Compound 420]
6,> 100,Nc1nc2cc(-n3cccn3)ccc2c2[nH]c(CN3CCCCC3=O)nc12 [Compound 423]
7,> 100,CCN(Cc1nc2c(N)nc3cc(-c4cncc(F)c4)ccc3c2[nH]1)C(C)=O [Compound 427]
8,> 100,CCN(Cc1nc2c(N)nc3cc(Br)ccc3c2n1CC(C)C)C(C)=O [Compound 430]
9,> 100,CCN(Cc1nc2c(N)nc3cc(Br)ccc3c2n1CCCOC)C(C)=O [Compound 431]
10,> 100,"CCN(Cc1nc2c(N)nc3cc(-c4cc[nH]n4)ccc3c2[nH]1)C(=O)Cc1cccc(C)c1 [Compound 437, N-{[4-amino-7-(1H-pyrazol-3-yl)-1H-imidazo[4,5-c]quinolin-2-yl]methyl}-N-ethyl-2-(3-methylphenyl)acetamide]"
11,> 100,"CCN(Cc1nc2c(N)nc3cc(-c4cc[nH]n4)ccc3c2[nH]1)C(=O)c1cccnc1 [Compound 438, N-{[4-amino-7-(1H-pyrazol-3-yl)-1H-imidazo[4,5-c]quinolin-2-yl]methyl}-N-ethylpyridine-3-carboxamide]"
12,> 100,"CCN(Cc1nc2c(N)nc3cc(-c4cc[nH]n4)ccc3c2[nH]1)C(=O)c1ccccn1 [Compound 439, N-{[4-amino-7-(1H-pyrazol-3-yl)-1H-imidazo[4,5-c]quinolin-2-yl]methyl}-N-ethylpyridine-2-carboxamide]"
13,> 100,"CCN(Cc1nc2c(N)nc3cc(-c4cc[nH]n4)ccc3c2[nH]1)C(=O)CC(C)(C)O [Compound 440, N-{[4-amino-7-(1H-pyrazol-3-yl)-1H-imidazo[4,5-c]quinolin-2-yl]methyl}-N-ethyl-3-hydroxy-3-methylbutanamide]"

# Same assay, conditions: numeric bounds
row,EC50 [µM],SMILES
1,> 10,CCN(Cc1nc2c(N)nc3cc(-c4ccc(C)cc4)ccc3c2[nH]1)C(C)=O [Compound 422]
2,> 30,N#Cc1ccc(-c2ccc3c(c2)nc(N)c2nc(CN4CCCC4=O)[nH]c23)cc1 [Compound 434]
3,> 50,"CCOC(=O)N(CC)Cc1nc2c(N)nc3cc(-c4cc[nH]n4)ccc3c2[nH]1 [Compound 436, Ethyl N-{[4-amino-7-(1H-pyrazol-3-yl)-1H-imidazo[4,5-c]quinolin-2-yl]methyl}-N-ethylcarbamate]"

# — patent US12351580B2, “NLRP3 modulators” (Innate Tumor Immunity, Inc., priority 2017, dated 2025)
